Results as given in patent publication US20230114264A1, “ACTIVATION OF LYTIC GENES IN CANCER CELLS” (priority 2020, published 2023).

Tested on: BGLF4
Assay: BGLF4 gRNA transfection into C666-1 cells, Western blotting
Format: cell-based, Epstein-Barr virus (EBV)
Details: FIG. 12B
Description: BGLF4 gRNAs were tested for triggering EBV reactivation in C666-1 cells expressing HA-dCas9-EGFP and 3×FLAG-pUFa-p65HSF1. Seven EBV genomic loci at the BGLF4 promoter were used to design the gRNAs for BGLF4 induction (gRNA (1), gRNA (2), gRNA (3), gRNA (4), gRNA (5), gRNA (6), and gRNA (7)). Individual BGLF4 gRNAs were transfected into cells and the induction of BGLF4 protein expression was studied by Western blotting. […] To study the combination effects of BGLF4 gRNAs, BGLF4 gRNAs were transfected into cells individually or in combination. […] As a positive control of EBV reactivation, the C666-1 cells were treated with the chemical inducer Gemcitabine to trigger EBV reactivation.

For Nc1ccn([C@@H]2O[C@H](CO)[C@@H](O)C2(F)F)c(=O)n1 [Gemcitabine], the “EBV reactivation (BZLF1 expression)” value was “implied the trigger of EBV reactivation”.
